# Tested on: fibroblast isolated from TgMHu2ME199K mice
# Assay type: cell-based
smiles,measurement,value
CCCC\C=C/C=C/C=C\CCCCCCCC(=O)O [punicic acid],"effect on copper toxicity, percentage of cell survival",significantly inhibited the toxic effect of cooper
